Assay results from patent publication US8067369B2, “Protection of the retina against laser injury by NAP and related peptides” (Ramot at Tel-Aviv University, priority 2006, dated 2011).
Blank lines part the entries; values can stand above or below the molecule they belong to. No end group written: not given here.

What was measured:
[1] = tested on: cells of the central nervous system (CNS); details: cell cultures; cited from earlier work
fetal alcohol syndrome = details: in vivo; cited from earlier work
[2] = rabbit, in vivo
Method: Three albino rabbits (each three months old) were used. One animal at a time was anesthetized using Ketamin (40 mg/kg) and Xylazine (8 mg/kg). After the animals were fully anesthetized, a drop of radioactive drug—^14C-NAPVSIPQ (SEQ ID NO:24) (50 microliter; 1.5×10^6 dpm; 37 mCi/mmol; 1 microCi=2×10^6 dpm) was applied once by a micropipette to each eye, i.e., eye drops. The eye drops were prepared to include 2.7 microliter of the ^14C-NAP stock in 400 microliter saline (0.9% NaCl). 10 microliters of this solution were counted to yield 3×10^5 dpm. After application of the drug, eye lids were held gently closed for 10 seconds.
The aqueous humor is the liquid that is found in-between the cornea and lens. Ten microliter samples of aqueous humor were taken from the rabbits' eyes using a tuberculin syringe with a 30 gauge needle.
The vitreous humor is found between the retina and the lens. Vitreous samples were obtained through the pars plana with a 25 gauge needle attached to a Tuberculin syringe. Ten microliter samples of vitreous humor were taken from each eye at designated times as outlined in the attached graphs up to 130 minutes after the initial eye drop application Systemic samples were taken from blood. For results see, e.g., FIGS. 4-6.
The animals were anesthetized for the duration of the […] to avoid animal suffering. A boost of anesthetics was injected about ninety minutes after the initiation of the experiment.

ischemic injury = details: after ischemic injury; cited from earlier work
normal aging rats = details: intranasal administration; cited from earlier work
anxiety = details: long term nasal application; cited from earlier work
[3] = tested on: Alzheimer's disease pathology; details: in vivo; cited from earlier work
[4] = tested on: laser-induced retinal damage; experiment: Argon laser retinal lesions in rats, histopathologic and morphometric evaluation; assay type: in vivo, rat
Method: Pigmented DA rats (strain DA/Ola/Hsd, Harlan OCAL Ltd., Blackthorn Bicester Oxon, England; raised in Tel-Aviv University animal house), 90 days old, were used for the experiments. The posterior segment of the eye of this strain has a uniform pigmentation, making it particularly useful for retinal laser injury production. The animals were fed ad libitum with a normal laboratory diet and maintained on a 12-h light/dark cycle. They were anesthetized by intraperitoneal injections of ketamine (40 mg/kg) and xylasine (8 mg/kg) before each experimental procedure.
After dilatation of the pupil with sterile drops of Topicamid 0.5% (Midramid, Fisher), a contact lens, specially crafted to fit a rat eye for retinal laser irradiation, was attached to the cornea with 2.5% hydroxypropyl methylcellulose. Six laser retinal lesions were produced in each eye of each of the anesthetized (ketamine (40 mg/kg) and xylasine (8 mg/kg)) rats by argon laser (Novus 2000 Coherent, CA) two disc diameters away from the optic disc. The laser beam characteristics were 514 & […], 200 μm, 0.1 W, 0.05 second. These laser settings were found in previous studies to result in lesions of a uniform size and configuration, involving mainly the outer retinal layers.
The animals of the experimental groups I and III underwent systemic intravenous injection of NAP or saline immediately after the laser photocoagulation, NAP was injected in the amount of 60 μg per animal (about 280-300 μg/kg) in a volume of 0.5 ml of saline. The animals of the control group got an injection of 0.5 ml of saline. The injections were performed in the femoral vein of the right leg of each animal after the vessel was uncovered and isolated in situ. The wound was sewed up after the injection with surgical silk.
The animals of the experimental groups II and IV underwent NAP or saline injection immediately after the laser photocoagulation. Each eye of each anesthetized rat was punctured with a 30-gauge needle of a Hamilton syringe at the temporal posterior part of the retina. Then, 5 μl of NAP saline solution at a concentration of 2.5 pg/μl was injected into the vitreous body of the experimental group. The same amount of saline (5 μl) was injected intravitreally in the animals of the control groups. All of the procedures were controlled visually via a surgical microscope.
The effect of treatment in all groups was evaluated at three time points: 3, 20, and 60 days after the primary injury (n=6 at each time point in each group). The animals were euthanized by a lethal dose of pentobarbitone and their eyes enucleated and fixed in 2% glutaraldehyde. Using a surgical microscope, the posterior segment of the fixed eye was dissected into tissue samples, each incorporating one retinal laser lesion. The samples were embedded in epoxy resin and the blocks sectioned serially (1 μm) with an ultramicrotome and stained with toluidine blue.
The microscopic images were digitalized by SmartCapture VP software (Digital Scientific, USA) and enhanced by IPLab software (Scanalytics, USA). Then the images were segmented for photoreceptor clarification by IPLab software (Scanalytics, USA) and the photoreceptors were counted.
Morphometric measurements were performed on each lesion in order to evaluate the severity of the argon laser injury. The borders of the lesion area were established at the most distant point from the middle of the lesion where the cytoarchitecture changes in the pigment epithelium, outer nuclear, inner nuclear, or ganglion cell layers of the retina could be distinguished. The measurements performed were: 1) Diameter of the whole lesion, 2) Cell count in the outer nuclear layer of the whole lesion area, and 3) Cell count in the outer nuclear layer at the 100 μm center of the lesion
In order to evaluate the extent of photoreceptor cell loss, results were compared to the cell density in the intact regions of the outer nuclear retinal layer located 100 μm peripherally from the edges of the lesion. […]

closed head injury = details: mice; cited from earlier work
[5] = tested on: neurons of the central nervous system; details: in-vitro assays and in vivo disease models; cited from earlier work

maximal incorporation into vitreous samples [2]: 60 dpm/10 microliters | peak of radioactive incorporation into the aqueous humor [2]: 150 dpm/10 microliter | radioactivity at the aqueous humor at the 10 minute point [2]: ~60 dpm/10 microliters | systemic exposure (blood radioactivity) [2]: 1-12 dpm | time of maximal incorporation into vitreous samples [2]: 10 min | time of peak radioactive incorporation into the aqueous humor [2]: 50 min | time the aqueous humor peak was maintained [2]: 70 min
Molecule: CC[C@H](C)[C@H](NC(=O)[C@H](CO)NC(=O)[C@@H](NC(=O)[C@@H]1CCCN1C(=O)[C@H](C)NC(=O)[C@@H](N)CC(N)=O)C(C)C)C(=O)N1CCC[C@H]1C(=O)N[C@@H](CCC(N)=O)C(=O)O [NAP, Asn-Ala-Pro-Val-Ser-Ile-Pro-Gln]
concentration showing neuroprotective activity [1]: femtomolar concentrations | fetal demise (fetal alcohol syndrome): reducing | growth restrictions (fetal alcohol syndrome): reducing | infarct volume (ischemic injury): reduced | motor function deficits (ischemic injury): reduced | performance in the Morris water maze (normal aging rats): improved performance | anxiety (anxiety): decreased anxiety | effect in Alzheimer's disease pathology models [3]: protective | neuroprotective effect against laser-induced retinal damage ([4]; intravitreal NAP 5 μl of 2.5 pg/μl, 3 days after the laser session): significant neuroprotective effect | neuroprotective effect against laser-induced retinal damage ([4]; intravitreal NAP, 20 and 60 days after the laser session): not after 20 and 60 days | mean lesion diameter ([4]; intravitreal NAP, 3 days after the laser injury): reduced | mean lesion diameter ([4]; intravitreal NAP, after 20 days, vs control groups): greater than in control groups | photoreceptor loss (morphological evaluation of the lesions) ([4]; systemic intravenous NAP 60 μg per animal immediately after laser, 3 and 20 days after injury, vs saline control): attenuation | lesion diameter (morphological evaluation of the lesions) ([4]; systemic intravenous NAP 60 μg per animal, 3 and 20 days after injury, vs saline control): attenuation | number of cells lost, whole and central areas of lesion ([4]; systemic intravenous NAP, 3, 20 and 60 days after injury): reduced | diameter of the lesion ([4]; systemic intravenous NAP, 20 and 60 days after the injury): significant ameliorative effects (P<0.01) | neuroprotective effect (photoreceptor loss and lesion diameter) ([4]; systemic intravenous NAP, 60 days after the laser session): also manifested, although to a lesser extent | significance of reduction in number of cells lost ([4]; systemic intravenous NAP, sixty days after photocoagulation only): statistically significant (P<0.01) | damage caused by closed head injury (closed head injury): reducing damage

Molecule: SALLRSIPA
survival of neurons in response to various insults [5]: keep neurons of the central nervous system alive
